# Test results as given in patent publication US20070020234A1, “Inhibition of tumor angiogenesis by combination of thrombospondin-1 and inhibitors of vascular endothelial growth factor” (priority 2003, published 2007).
# “Also recorded” adds a separate entry of the source.
# Tests used:
# [1] = tested on: Erk (p44/42 MAPK); experiment: Western blot of Erk (p44/42 MAPK) activation after HGF/SF stimulation; assay type: cell-based, human; details: for constitutive level of MAP kinase activity: MDA-MB-231 cells (FIG. 2A/2); for activation of Erk in response to HGF/SF: SK-LMS-1 and MDA-MB-231 cells, inhibitor 1 hour (PD98059 80 μM, U0126 40 μM), then HGF/SF 15 minutes
# Protocol: (§1) FIG. 2A: HGF/SF induces activation of MAP kinase and PI3 kinase pathways in SK-LMS-1 cells and MDA-MB-231 cells. Serum-starved cells were treated with or without DMSO (control), PD98059 (80 μM), U0126 (40 μM) or LY294002 (40 μM) for 1 hour, followed by HGF/SF stimulation for 15 minutes (A time point good for observing all the tyrosine phosphorylation statuses). Whole cell extracts were prepared and the state of Met phosphorylation was detected by immunoprecipitation with anti-human Met antibody, followed by Western blot with anti-Phosphotyrosine (and/or anti-human Met antibody). For detection of Erk and Akt, Western blots were probed with anti-phospho p44/42 MAPK, anti-p44/42 MAPK, anti-phospho Akt (Ser473) or anti-Akt antibodies, respectively. FIG. 2B: Negative regulation of TSP-1 expression occurs primarily through the MAP kinase pathway, while positive regulation of VEGF expression occurs through MAP kinase and PI3 kinase pathway. Total RNAs were prepared from cells with or without inhibitor treatment and/or HGF/SF treatment. Northern Blot analyses were performed as described in FIG. 1A-caption. […] Up-regulation of VEGF was inhibited by PD98059, U0126 as well as LY294002. […]: VEGF but not TSP-1 expression was regulated by Stat3 signaling. Total RNAs were prepared from SK/HGF cells with or without overexpression of a dominant negative form of Stat3, Stat3 (17). […] FIG. 2D: LF increases TSP-1 and decreases VEGF expression in MDA-MB-231 human breast cancer cells. Cells were treated with or without indicated inhibitors for 24 hours and then total RNAs were prepared. Northern Blot analyses were performed using ^32P-radiolabelled probe for human TSP-1, VEGF or GAPDH, respectively.
# HGF/SF, acting through its tyrosine kinase receptor, Met, is known to activate several intracellular signaling pathways, including MAP kinase, PI3 kinase and Stat3 (1, 16). The present inventors asked which pathways might be involved in regulating VEGF and TSP-1 expression. The present inventors treated SK-LMS-1 and MDA-MB-231 cells with (or without) various inhibitors for one hour, followed by HGF/SF stimulation for 15 minutes (FIGS. 2A/1 and 2A/2). Met receptor is tyrosine-phosphorylated in response to HGF/SF, followed by the activation of downstream targets of Erk p44/42 MAPK) and Akt/PI3 kinase. […] RNA samples from SK-LMS-1 and MDA-MB-231 cells treated with individual inhibitors followed by HGF/SF treatment for 24 hours were analyzed by Northern Blot analyses. HGF/SF-induced shut off of TSP-1 was blocked by PD98059 or U0126 but was not affected by LY294002 (FIGS. 2B/1-2B/2), nor by overexpression of Stat3B, a dominant-negative form of Stat3 (FIG. 2C) (17). […] In MDA-MB-231 cells, the present inventors observed a dramatic effect from the MEK MAP kinase inhibitors on TSP-1 (FIG. 2B/2).
# [2] = tested on: TSP-1 expression; experiment: Northern blot of TSP-1 expression; assay type: cell-based, human; details: for TSP-1 expression relative to basal level after inhibitor treatment: MDA-MB-231 cells (FIG. 2B/2); for TSP-1 expression in the absence of HGF/SF induction: inhibitor 24 hours, LF at 1, 3 or 9 μg/ml (FIG. 2D); for HGF/SF-induced shut off (down-regulation) of TSP-1: SK-LMS-1 and MDA-MB-231 cells, inhibitor followed by HGF/SF for 24 hours
# Protocol: (§2) FIG. 1A-1C. HGF/SF up-regulates VEGF and down-regulates TSP-1 expression in SK-LMS-1 cells (FIG. 1A) and MDA-MB-231 cells (FIG. 1B) and HUVEC cells (FIG. 1C). Total RNAs were prepared from SK-LMS-1 cells, MDA-MB-231 cells or HUVEC with or without treatment of recombinant human HGF/SF (200 units/ml) at the indicated time points after stimulation. Total RNAs were also prepared from the SK/HGF cell line, a long-term culture derivative of SK-LMS-1 cells that is autocrine for human HGF/SF (15). Northern Blot was probed with ^32P-radiolabeled TSP-1, VEGF or G3PDH cDNA fragment, respectively. For HUVEC, treatment of recombinant human HGF/SF (200 units/ml) was for 24 hours in the presence or absence of fetal bovine serum (FBS) and Northern Blot analyses were performed using ^32P-radiolabelled probe for human TSP-1, VEGF or GAPDH, respectively. TSP-1 expression in HUVEC cells was decreased in response to HGF/SF treatment. However, VEGF expression was undetectable with or without HGF/SF treatment.
# as §1
# (§3) VEGF was also elevated in long term cultures of SK-LMS-1 cells autocrine for HGF/SF (SK/HGF, 15) (FIG. 1A). […] This effect was seen as early as 6 hours after HGF treatment and continued to 48 hours. More dramatically, TSP-1 expression was eliminated in the SK/HGF cell line.
# (§4) HGF/SF, acting through its tyrosine kinase receptor, Met, is known to activate several intracellular signaling pathways, including MAP kinase, PI3 kinase and Stat3 (1, 16). The present inventors asked which pathways might be involved in regulating VEGF and TSP-1 expression. The present inventors treated SK-LMS-1 and MDA-MB-231 cells with (or without) various inhibitors for one hour, followed by HGF/SF stimulation for 15 minutes (FIGS. 2A/1 and 2A/2). Met receptor is tyrosine-phosphorylated in response to HGF/SF, followed by the activation of downstream targets of Erk p44/42 MAPK) and Akt/PI3 kinase. […] RNA samples from SK-LMS-1 and MDA-MB-231 cells treated with individual inhibitors followed by HGF/SF treatment for 24 hours were analyzed by Northern Blot analyses. HGF/SF-induced shut off of TSP-1 was blocked by PD98059 or U0126 but was not affected by LY294002 (FIGS. 2B/1-2B/2), nor by overexpression of Stat3B, a dominant-negative form of Stat3 (FIG. 2C) (17). […]
# [3] = tested on: VEGF expression; experiment: Northern blot of VEGF expression; assay type: cell-based, human; details: for VEGF expression in the absence of HGF/SF induction: inhibitor 24 hours, LF at 1, 3 or 9 μg/ml (FIG. 2D); for expression of VEGF induced by HGF/SF: inhibitor followed by HGF/SF for 24 hours; for VEGF expression (up-regulation by HGF/SF): SK-LMS-1 and MDA-MB-231 cells (FIGS. 2B/1, 2B/2); for VEGF expression after HGF/SF treatment: HGF/SF 200 units/ml
# Protocol: as §2, §1, §3, §4
# [4] = tested on: SK/HGF tumor xenografts; experiment: Subcutaneous tumor growth of SK/HGF-TSP1 versus SK/HGF cells in athymic nude mice; assay type: in vivo; details: TSP-1 overexpression in SK/HGF cells implanted subcutaneously in athymic nude mice; p<0.025
# Text: FIG. 3A-3D. TSP-1 inhibits HGF/SF-induced tumor growth in vivo. FIG. 3A: TSP-1 was ectopically expressed in SK/HGF cells, establishing the SK/HGF-TSP 1 cell line. The expression of TSP-1 in SK/HGF-TSP1 cells was confirmed by Northern blot analysis. FIG. 3B: Tumor growth of SK-LMS cells and the influence of TSP-1 overexpression. SK-LMS-1 control cells, SK/HGF control cells and SK/HGF-TSP 1 cells (clone 26) were subcutaneously implanted in athymic nude mice, respectively. The animals were monitored for tumor growth and tumor volumes (Tvol) were measured twice a week. The Tvol values represent an average of four mice for each group (P<0.025). FIG. 3C: Visualization of the tumors at sacrifice. FIG. 3D: TSP-1 protein in tumor xenografts is derived from SK/HGF-TSP1 cells. Cell extracts were prepared from fresh tumors and TSP-1 protein was detected by anti-TSP-1 antibody under denatured condition.
# TSP-1 was overexpressed in SK/HGF cells to generate SK/HGF-TSP1 cells (FIG. 3A). Overexpression of TSP-1 has no effect on cell proliferation or anchorage-independent growth compared the parental SK/HGF cells in vitro (FIGS. 5A-5B). To test whether TSP-1 influences tumorigenicity, the present inventors SK/HGF and SK/HGF-TSP1 cells were subcutaneously implanted in athymic nude mice, and their tumor growth rates were compared. […]
# [5] = tested on: tumor angiogenesis (CD31-positive vessels); experiment: CD31 immunohistochemical staining of blood vessels in tumor sections; assay type: in vivo, athymic nude mice; details: SK/HGF-TSP1 versus SK/HGF tumors; P<0.01
# Text: FIGS. 4A and 4B/1-4B/6 are a graph and photomicrographs showing that TSP-1 inhibits HGF/SF-induced tumor angiogenesis. […] Three fields (10× magnification) from each stained tumor section were photographed and the numbers of CD31-positive vessels (brown staining) were scored. The numbers represent the average number of blood vessels in sections from four tumors for each group (P<0.01).
# To test whether the inhibition of tumor growth by TSP-1 was due to an extrinsic effect by preventing tumor angiogenesis, the present inventors performed immunohistochemical staining using antibodies against mouse endothelial cell surface marker CD31 to detect the number of blood vessels in SK/HGF and SK/HGF-TSP-1 tumor sections.
# [6] = tested on: SK/HGF cells; experiment: Cell proliferation and anchorage-independent growth in vitro; assay type: cell-based, human; details: TSP-1 overexpression compared with parental SK/HGF cells in vitro
# Text: FIGS. 5A and 5B are graphs showing that overexpression of TSP-1 has no effect on cell proliferation or anchorage-independent growth compared the parental SK/HGF cells in vitro.
# TSP-1 was overexpressed in SK/HGF cells to generate SK/HGF-TSP1 cells (FIG. 3A). Overexpression of TSP-1 has no effect on cell proliferation or anchorage-independent growth compared the parental SK/HGF cells in vitro (FIGS. 5A-5B). To test whether TSP-1 influences tumorigenicity, the present inventors SK/HGF and SK/HGF-TSP1 cells were subcutaneously implanted in athymic nude mice, and their tumor growth rates were compared. At early times, no growth differences were observed between the SK/HGF and SK/HGF-TSP1 groups. However, when the tumors grew to a certain size, differences between became more apparent (Student's t test p<0.025). […] TSP-1 protein expression was confirmed in the SK/HGF-TSP1 tumor group by Western blot analysis (FIG. 3D).
# [7] = tested on: VEGF; details: cited from earlier work
# [8] = HUVEC, HGF/SF 200 units/ml for 24 hours
Compound,constitutive level of MAP kinase activity [1],activation of Erk in response to HGF/SF [1],TSP-1 expression relative to basal level after inhibitor treatment [2],TSP-1 expression in the absence of HGF/SF induction ([2]; MDA-MB-231 cells),HGF/SF-induced shut off (down-regulation) of TSP-1 [2],VEGF expression in the absence of HGF/SF induction ([3]; MDA-MB-231 cells),expression of VEGF induced by HGF/SF ([3]; MDA-MB-231 cells),VEGF expression (up-regulation by HGF/SF) [3],expression of VEGF induced by HGF/SF ([3]; SK-LMS-1 cells),other results
COc1cccc(-c2cc(=O)c3ccccc3o2)c1N [PD98059],inhibited,blocked the activation of Erk,higher than the basal level,up-regulation of TSP-1,blocked; also recorded: inhibited,down-regulation of VEGF,suppressed,inhibited,only slightly,
N#CC(=C(/N)Sc1ccccc1N)/C(C#N)=C(\N)Sc1ccccc1N [U0126],inhibited,blocked the activation of Erk,higher than the basal level,up-regulation of TSP-1,blocked; also recorded: inhibited,down-regulation of VEGF,suppressed,inhibited,only slightly,
"HGF/SF: recombinant human hepatocyte growth factor/scatter factor, ligand of the Met receptor",,,,,,,,,,"TSP-1 expression after HGF/SF treatment [2, 8]: decreased; TSP-1 expression after HGF/SF treatment ([2]; MDA-MB-231 cells, 24 and 48 hours after HGF treatment): down-regulation of TSP-1; TSP-1 expression after HGF/SF treatment ([2]; SK-LMS-1 cells, HGF/SF 200 units/ml, 6 to 48 hours): significant decrease in TSP-1 expression; VEGF expression with or without HGF/SF treatment [3, 8]: undetectable; VEGF expression after HGF/SF treatment ([3]; MDA-MB-231 cells, persisted for 48 hours): levels of VEGF increased; VEGF expression after HGF/SF treatment ([3]; SK-LMS-1 cells, up to 48 hours): induced VEGF"
"TSP-1: thrombospondin-1, angiogenesis antagonist; tested by ectopic overexpression in SK/HGF cells",,,,,,,,,,HGF/SF-dependent tumor growth [4]: partially inhibited; neovascularization (number of CD31-positive vessels) in tumors [5]: Decreased neovascularization; cell proliferation or anchorage-independent growth [6]: no effect
VEGF-Trap: soluble decoy VEGF receptor fused to IgG; high-affinity VEGF blocker,,,,,,,,,,"tumor growth and vascularization in vivo ([7]; Holash et al.): effectively suppressed tumor growth and vascularization; vasculature in established xenografts ([7]; Huang et al., followed by tumor regression including lung micrometastases): abolished mature, preexisting vasculature"
